Test results taken from patent US9901566B1, “Limonoids for treating autoimmune diseases” (Macau University of Science and Technology, priority 2017, dated 2018).
Where “and” joins values, the source holds several entries; their conditions need not be identical. Equal values may be shown once. Entries after “also recorded” stand apart in the source; their conditions may differ.

Legend:
[1] = system: ROR-γt luciferase reporter activity; test: Lightswitch luciferase reporter assay (ROR Gamma T LUCPorter stable reporter HEK293 cells); format: cell-based; conditions: 16 h
Procedure: ROR Gamma T LUCPorter™ Stable Reporter cells and LUCPorter™ Vector Control HEK293 cells (Imgenex) were plated in 96-well plates at 5×10^4 cells/well in triplicate in RPMI 1640 medium with 10% fetal bovine serum, penicillin (100 units/mL), streptomycin (100 μg/mL) and puromycin (3 μg/mL) over night. […] Then the complete mixture of luciferase assay reagent (Biocompare, Texas, USA) has been added to the wells and the mixture has been incubated for 30 min at room temperature in the dark. The mixture has been transferred into a 96 well white plates before reading. Finally, each well was read for 2 seconds in a plate luminometer on a Microplate UV/VIS Spectrophotometer (TECAN, Switzerland). Data are obtained from three independent experiments.

Th2 differentiation = test: Flow cytometry, Th2 differentiation of naive CD4+ T cells (IL-4 production); format: cell-based, C57BL/6 mice; conditions: for ratio of the IL-4 producing Th2 differentiation: Th2-polarizing conditions, 3 days
Procedure: (§1) Naive CD4^+ T cells were sorted by magnetic bead (Miltenyi Biotec) from spleen of C57BL/6 mice (8-14 weeks). CD4^+ T cells (5×10^5 cells/well) were activated with 2 μg/ml of plate-bound anti-mouse CD3 (Biolegend, San Diego, USA), and 5 μg/ml of anti-mouse CD28 (Biolegend) into 24-well-plates. For Th17 differentiation, cells were cultured for 3 days in the presence of 1 ng/ml recombinant human transforming growth factor-β (TGF-β1, Biolegend), 50 ng/ml recombinant mouse interleukin-6 (IL-6, Biolegend), and 5 ng/ml recombinant mouse IL-23 (Biolegend), and 10 μg/ml anti-mouse interleukin-4 (IL-4, Biolegend) with or without the limonoid. For the Th1 differentiation, the cells were cultured for 3 days in the presence of 2 ng/ml recombinant mouse interleukin-2 (IL-2, Biolegend), and 20 μg/ml anti-mouse IL-4 (Biolegend) with or without indicated compounds. For the Th2 differentiation, the cells were cultured for 3 days in the presence of 2 ng/ml recombinant mouse IL-2 (Biolegend), and 20 ng/ml recombinant mouse IL-4 (Biolegend), and 20 μg/ml anti-mouse IFN-γ (Biolegend) with or without compound. For the Treg differentiation, the cells were cultured for 3 days in the presence of 1 ng/ml recombinant human TGF-β1 (Biolegend), and 5 ng/ml recombinant mouse IL-2 (Biolegend) with or without indicated compounds.
(§2) For polarization of Th17, the cells were re-stimulated in complete RPMI 1640 containing 50 ng/ml PMA, 1 μg/ml ionomycin, and 1× Brefeldin A (Biolegend) for 4 h. For polarization of Th1 and Th2, the cells were re-stimulated in complete RPMI 1640 containing 50 ng/ml PMA and 1 μg/ml ionomycin. After 1 h of incubation, 1× Monensin (Biolegend) was added and incubated for 4 h. The cells were collected and washed with Staining Buffer (BD Biosciences, New Jersey, USA), and then stained with PerCP/Cy5.5 anti-mouse CD4 (Biolegend). And then the cells were fixed for 15 min with fixation buffer (BD Biosciences), permeabilized with BD Wash buffer (1×; BD Biosciences), and stained with PE anti-mouse IL-17A (Biolegend), FITC anti-mouse IFN-γ (Biolegend), and APC anti-mouse IL-4 (Biolegend) or APC anti-mouse Foxp3 (eBioscience). The cells were analyzed by BD FACS Aria III, and the acquired data were analyzed using FlowJo software.

[2] = system: human peripheral blood mononuclear cells (PBMCs); test: Cell viability (MTT) assay of human PBMCs; format: cell-based; conditions: concentration of up to 50 μM, 72 h
Procedure: Human peripheral blood mononuclear cells have been isolated from buffy coat. In brief, the buffy coat provided by Macao Blood Transfusion Centre was mixed with normal saline, and then added to 50 mL centrifuge tube containing Ficoll-Pague plus (Amersham Biosciences). The mixture was separated into several layers after centrifuged at 350 g for 35 min. The layer of mononuclear cells has been collected, and then washed twice by normal saline. These cells were be used for the experiments.
Human PBMCs (1×10^5/well) were cultured in 96-well plates in triplicate in RPMI 1640 medium (Gibco, Paisley, UK) with 10% fetal bovine serum (FBS; Gibco), penicillin (100 units/mL) and streptomycin (100 μg/mL), and different concentration of Amotsangin A, B, C and D were added for 72 h. MTT (5 mg/mL) was added to the cells followed by 4 h incubation, followed by addition of solvent (10% sodium dodecyl sulfate (SDS), 50% N, N-dimethyl formamide, pH 7.2) to dissolve the purple precipitate. The absorbance was recorded on a Microplate UV/VIS Spectrophotometer (TECAN, Switzerland) at 570 nm wavelength on the following day. The percentage of cell viability was calculated using the following formula: Cell viability (%)=(ODtreated−ODblank)/(ODcontrol−ODblank)×100.

Th1 differentiation = test: Flow cytometry, Th1 differentiation of naive CD4+ T cells (IFN-γ production); format: cell-based, C57BL/6 mice; conditions: for ratio of the IFN-γ producing Th1 differentiation: Th1-polarizing conditions, 3 days
Procedure: as §1, §2

Th17 differentiation = test: Flow cytometry, Th17 differentiation of naive CD4+ T cells (IL-17 production); format: cell-based, C57BL/6 mice; conditions: Th17-polarizing conditions; for ratio of the IL-17 production: 3 days; for Th17 cell differentiation (effect in words): up to 25 μM (Amotsangin C up to 10 μM)
Procedure: as §1, §2

Treg differentiation = test: Flow cytometry, Treg differentiation of naive CD4+ T cells (Foxp3 production); format: cell-based, C57BL/6 mice; conditions: for Foxp3 producing Treg differentiation: Treg-polarizing conditions, 3 days
Procedure: as §1, §2

ROR-γt protein = test: Western blotting of ROR-γt expression in ROR-γt-plasmid transfected HEK293 cells; format: cell-based, human; conditions: 24 h
Procedure: The transfection assay is preformed according to the manufacturer's instruction of lipofectamine LTX (invitrogen, USA). In brief, HEK293 cells obtained from the American Type Culture Collection (ATCC, Manassas, Va., USA) were seeded in 1.5 ml of DMEM growth media plus 10% FBS at 5×10^5 cells per well. Five hundred micro liter Opti-MEM Reduced Serum Media containing 1.25 μg of DNA was added to the cells to be transfected, and then 1.25 μl of PLUS was added into the above diluted Opti-MEM:DNA solution, gently mixed and incubated for another 5 min at room temperature. Subsequently, lipofectamine LTX™ Reagent was added into the above solution, mixed gently and then incubated 30 min at room temperature to form DNA-lipofectamine LTX Reagent complexes. Finally, 500 μl of the DNA-lipofectamine LTX Reagent complexes was directly added to each well containing cells and mixed gently. The cells were incubated at 37° C. in a CO2 incubator for another 24 h.
After incubated for 24 h, the transfected HEK293 cells were treated with different concentrations of Amotsangin A, B, C or D for another 24 h. Then the cells were lysed with RIPA buffer containing 1× protease inhibitor mix (Roche, USA) to harvest total cellular proteins, and the protein concentration was calculated by the bicinchoninic acid (BCA) kit (Pierce, Rockford, Ill.). The total cellular proteins were then subjected to electrophoresis in 10% SDS/PAGE and transferred to nitrocellulose membranes. After blocking with 5% non-fat milk in a Tris-buffered saline-0.1% Tween-20 buffer (TBST), the membrane was subsequently incubated with specific primary antibodies (RORγt antibody (eBioscience, San Diego, USA) or β-actin antibody (Santa Cruz, USA)) and HRP-conjugated secondary antibodies. A chemiluminescence (ECL) detection system was used to detect the antibody-bound proteins on the membrane.

C=C1[C@@H]([C@@]2(C)C=CC(=O)OC(C)(C)[C@@H]2CC(=O)OC)[C@@H](OC(C)=O)[C@H](OC(=O)C(C)CC)[C@@]2(C)[C@H](c3ccoc3)C[C@H]3O[C@]132 (stereo partly drawn) [Amotsangin A]
ROR-γt luciferase reporter activity ([1]; 5 to 50 μM): dose-dependently reduced; also recorded: inhibits
Th2 cell differentiation (effect in words) (Th2 differentiation; 25 μM): no inhibitory effect
ratio of the IL-4 producing Th2 differentiation (Th2 differentiation; 25 μM): 14.8%
cytotoxicity on human PBMCs [2]: no significant cytotoxicity
Th1 cell differentiation (effect in words) (Th1 differentiation; 25 μM): no inhibitory effect
ratio of the IFN-γ producing Th1 differentiation (Th1 differentiation; 25 μM): could not be changed
ratio of the IL-17 production (Th17 differentiation; 25 μM): 4.28%
Th17 cell differentiation (effect in words) (Th17 differentiation): can suppress
Treg cell differentiation (effect in words) (Treg differentiation; 25 μM): no inhibitory effect
expression of ROR-γt protein (ROR-γt protein; 5 to 50 μM): dose-dependently reduced; also recorded: reduces

C=C1[C@@H]([C@@]2(C)C=CC(=O)OC(C)(C)[C@@H]2CC(=O)OC)[C@@H](OC(C)=O)[C@H](OC(=O)CC)[C@@]2(C)[C@H](c3ccoc3)C[C@H]3O[C@]132 [Amotsangin D]
ROR-γt luciferase reporter activity ([1]; 5 to 50 μM): dose-dependently reduced; also recorded: reduces
Th2 cell differentiation (effect in words) (Th2 differentiation; 25 μM): could inhibit
ratio of the IL-4 producing Th2 differentiation (Th2 differentiation; 25 μM): 11.9%
cytotoxicity on human PBMCs [2]: no significant cytotoxicity
Th1 cell differentiation (effect in words) (Th1 differentiation; 25 μM): no inhibitory effect; also recorded: slight inhibitory effect
ratio of the IFN-γ producing Th1 differentiation (Th1 differentiation; 25 μM): 14.6%
ratio of the IL-17 production (Th17 differentiation; 25 μM): 1.59%
Th17 cell differentiation (effect in words) (Th17 differentiation): can suppress
Treg cell differentiation (effect in words) (Treg differentiation; 25 μM): no inhibitory effect
Foxp3 producing Treg differentiation (Treg differentiation; 25 μM): 13.7%
expression of ROR-γt protein (ROR-γt protein; 5 to 50 μM): reduces

C=C1[C@@H]([C@@]2(C)C=CC(=O)OC(C)(C)[C@@H]2CC(=O)OC)[C@@H](OC(C)=O)[C@H](OC(=O)C(C)C)[C@@]2(C)[C@H](c3ccoc3)C[C@H]3O[C@]132 [Amotsangin B]
ROR-γt luciferase reporter activity ([1]; 5 to 50 μM): dose-dependently reduced; also recorded: inhibits
Th2 cell differentiation (effect in words) (Th2 differentiation; 25 μM): can inhibit
ratio of the IL-4 producing Th2 differentiation (Th2 differentiation; 25 μM): 4.11%
cytotoxicity on human PBMCs [2]: no significant cytotoxicity
Th1 cell differentiation (effect in words) (Th1 differentiation; 25 μM): can inhibit
ratio of the IFN-γ producing Th1 differentiation (Th1 differentiation; 25 μM): 2.02%
ratio of the IL-17 production (Th17 differentiation; 25 μM): 1.08%
Th17 cell differentiation (effect in words) (Th17 differentiation): can suppress
Treg cell differentiation (effect in words) (Treg differentiation; 25 μM): no effect; also recorded: not effect
expression of ROR-γt protein (ROR-γt protein; 5 to 50 μM): reduces

C=C1[C@@H]([C@@]2(C)C=CC(=O)OC(C)(C)[C@@H]2CC(=O)OC)[C@@H](OC(C)=O)[C@H](OC(=O)C(O)C(C)CC)[C@@]2(C)[C@H](c3ccoc3)C[C@H]3O[C@]132 (stereo partly drawn) [Amotsangin C]
ROR-γt luciferase reporter activity ([1]; 1 to 25 μM): dose-dependently reduced; also recorded: reduces
Th2 cell differentiation (effect in words) (Th2 differentiation; 10 μM): inhibits
ratio of the IL-4 producing Th2 differentiation (Th2 differentiation; 10 μM): 8.7%
cytotoxicity on human PBMCs [2]: no significant cytotoxicity
Th1 cell differentiation (effect in words) (Th1 differentiation; 10 μM): inhibits; also recorded: can inhibit
ratio of the IFN-γ producing Th1 differentiation (Th1 differentiation; 10 μM): 10.2%
ratio of the IL-17 production (Th17 differentiation; 10 μM): 1.91%
Th17 cell differentiation (effect in words) (Th17 differentiation): can suppress
Treg cell differentiation (effect in words) (Treg differentiation; 10 μM): inhibits
Foxp3 producing Treg differentiation (Treg differentiation; 10 μM): 8.49%
expression of ROR-γt protein (ROR-γt protein; 1 to 25 μM): reduced

C[C@H]1O[C@@H](O[C@H]2[C@@H](O)C[C@H](O[C@H]3[C@@H](O)C[C@H](O[C@H]4CC[C@@]5(C)[C@H](CC[C@@H]6[C@@H]5C[C@@H](O)[C@]5(C)[C@@H](C7=CC(=O)OC7)CC[C@]65O)C4)O[C@@H]3C)O[C@@H]2C)C[C@H](O)[C@@H]1O [digoxin, reference compound]
ratio of the IL-4 producing Th2 differentiation (Th2 differentiation; 10 μM): 15.0% and 10.2%
ratio of the IFN-γ producing Th1 differentiation (Th1 differentiation; 10 μM): 10.8% and 15.3% and 17.0%
ratio of the IL-17 production (Th17 differentiation; 10 μM): 5.43%
